The text below walks through data of a melting point compilation (Tetko et al.; mined from patent text by program, amines drawn as free bases though some values may be those of a salt).

SMILES strings stand for the structures.

Consider `O=C(c1ccc(Cl)cc1)c1cnc2ccc(Cl)cc2c1O`, for which the melting point is over 260 °C.

`Cn1c(C(F)F)nn(-c2cc(O)c(Cl)cc2F)c1=O` displayed a melting point of 153 to 155 °C.

In turn, `OC(CNc1ccnc2cc(Cl)ccc12)c1ccccc1` (configuration not stated) registered a melting point of 221 to 222 °C.

In turn, `O=C(c1cccs1)c1cccc2c1CCC2C(=O)O` (configuration not stated) showed a melting point of 122 to 124 °C. The compound `O=C(NC(=O)c1c(F)cccc1F)Nc1ccc(Cl)c(C(F)(F)F)c1` gave a melting point of 220 °C. On to `COCCOc1cc2ncc(C#N)c(O)c2cc1OCc1ccccc1`, for which the melting point was over 250 °C. Compound `O=c1[nH]c(-c2[nH]c3ccccc3c2Cl)no1` showed a melting point of 240 to 241 °C. Regarding `c1ccc(-c2ccc3cnc(NCc4cccnc4)nn23)cc1`, the melting point fell in the range of 201 to 203 °C. The result for `Cc1nc(-c2ccccc2N)[nH]c1-c1cccnc1` reads 221 to 222 °C; that for `CS(=O)(=O)c1ccc(OCCO)cc1`, 89 to 90 °C.

As to `COc1cccc(C(=O)c2cc3ccccc3[nH]2)c1`, the melting point was 119 to 121 °C. Turning to `O=C1CN=C(c2ccccc2)O1`, the melting point lay in the range of 83 to 86 °C.

In the case of `COc1n[nH]c(=O)n1O`, the melting point was found to be 211 °C. The compound `CC(=O)Nc1cc(Cn2c(C(=O)c3cc(C)cc(Cl)c3)c(C(C)C)c(=O)[nH]c2=O)ccn1` came in with a melting point of 241 to 243 °C.

As to `O=C(O)c1cc(OCCCCCCc2cccc(O)c2O)ccc1O`, the melting point was 159 to 161 °C. Take `CC(C)CN1N=Cc2cc(S(N)(=O)=O)sc2S1(=O)=O`: the melting point lay within 130 to 132 °C. With `CS(=O)(=O)Nc1ccc(Sc2cnc(N)s2)cc1`, the melting point lay in the range of 185 to 187 °C. Regarding `O=c1c2cc(F)c(N3CCCC3)nc2n(Cc2ccccc2)c(=O)n1O`, the melting point was in the range of 219 to 220 °C. `Cc1ccc(C(O)(Cn2ccnc2)C(C)(C)C)cc1` (configuration not stated) gave a melting point of 135 to 137 °C. For `CCOC(=O)Cc1c(-c2ccc(Cl)cc2)nn2cccnc12`, the melting point lay within 221 to 225 °C. Regarding `CC(C)(C)NCC(O)COc1ccccc1CCCc1cccc2[nH]ccc12` (configuration not stated), the melting point came out at 96 °C.

`N#Cc1cc(Cl)c(N)c(I)c1`: the melting point lay within 121 to 123 °C. For the compound `O=C(O)CCOc1cccc(F)c1`, the melting point lay within 90 to 91 °C. In the case of `CC(C)(C)OC(=O)NCCC(=O)NC(CC(=O)OCc1ccccc1)c1ccccc1` (configuration not stated), the melting point is 124 to 126 °C. The compound `CC(C)(Cc1ccccc1)C(NC(=O)c1ccc(Cl)cc1)NC(=NC#N)Nc1cccnc1` (configuration not stated) came in with a melting point of 182 to 183 °C.

In turn, `O=C(Nc1cccc2c1C(=O)OC2=O)c1ccc(Cl)s1` showed a melting point of 195 °C. For the compound `COCC1OC(n2cnc3c(N)nc(Cl)nc32)C(O)C1O` (configuration not stated), the melting point fell in the range of 200 to 202 °C. In the case of `O=Cc1c[nH]c2ccc(C(F)(F)F)cc12` it was 242 to 243 °C. In the case of `O=C(OCc1ccccc1)N1CCN(CCN2C(=O)c3ccccc3C2=O)CC1`, the melting point is 89.5 to 90.5 °C. `O=c1[nH]c2sccc2c(=O)o1` registered a melting point of 233 °C. For the compound `C=CCN1C(=O)C(F)N=C(c2ccccc2)c2cc(Cl)ccc21` (configuration not stated), the melting point lay in the range of 138 to 140 °C. `CCc1c(C)c(NC(=O)CC(C)(C)C)c(C)c2c1OCC2c1ccc(C(C)C)cc1` (configuration not stated) came in with a melting point of 135 to 136 °C. Compound `N=C(N)NCCc1ccc(OCCC2Oc3ccccc3N(Cc3cc(Cl)cc(Cl)c3)C2=O)cc1` (configuration not stated) displayed a melting point of 116 to 117 °C. On to `COc1ccc(S(=O)(=O)C2CC(=O)NC2=O)cc1` (configuration not stated), for which the melting point was in the range of 144 to 146 °C. The compound `CCCCn1c(COCC)nc2c(N)nc3ccc(-c4cccnc4)cc3c21` showed a melting point of 220 to 222 °C. Take `COc1ccc2c(c1)S(=O)(=O)N=CN2CCCl`: the melting point lay within 126 to 130 °C. Compound `COc1ccc(-c2ccc(C(=O)CCC(=O)O)cc2)cc1` returned a melting point of 197 to 199 °C. Compound `CC(C)(C)OC(=O)Nc1ccc(C(=O)N2CCC(c3[nH]nc4c3C(=O)c3c(NC(=O)NN5CCOCC5)cccc3-4)CC2)cc1` registered a melting point of 212 to 214 °C. In the case of `COc1ccccc1Oc1c(N)nc(-c2ncccn2)nc1OCCOc1ncc(Br)cn1` it was 124 to 128 °C; in that of `CC1(C)Oc2ccc(OCc3nc4cc(F)c(F)cc4s3)cc2[C@H](O)[C@@H]1c1cccc(NS(=O)(=O)C(F)(F)F)c1`, 191 to 193 °C; in that of `COCc1[nH]c(=O)c(C#N)c2c1CC(C)CC2` (configuration not stated), 205 to 208 °C. The result for `N#Cc1cc(N)ccc1N1CCC(CCO)CC1` reads 60 to 63 °C. For the compound `COCCCC(=O)NNC(=O)N1Cc2ccccc2Oc2ccc(Cl)cc21`, the melting point was 142 to 144 °C. In the case of `O=C(C1CC1)N1CCC2(CC1)Cc1ccccc1O2` it was 111 to 113 °C.

`CC(C)(C)OC(=O)NC1CCCCCC=CC2CC2(C(=O)NS(=O)(=O)C2CC2)NC(=O)C2CC(OC(=O)c3ccc(Cl)c(F)c3)CN2C1=O` (configuration not stated) yielded a melting point of 147 to 149 °C. The compound `Nc1cc(C(F)(F)F)ccc1-c1cc2ccccc2[nH]1` showed a melting point of 164 to 166 °C. For the compound `CC1(C)[C@H]2[C@H](O)OC(=O)[C@H]21`, the melting point was determined as 116 °C. `CCOC(=O)C1(C(N)=O)OCCO1`: the melting point is 99 to 100 °C. The result for `N=C(N)c1sccc1-c1ccc(CN2CCSC2)cc1` reads 162 to 164 °C. The compound `COC(=O)c1c[nH]c(C=Cc2cnc3nc(NC(=O)C(C)(C)C)nc(O)c3c2)c1` returned a melting point of over 260 °C.

`Cc1cn(C(C)C(=O)O)nc1-c1ccccc1` (configuration not stated) returned a melting point of 151 to 162 °C. `O=C1N[C@@H](Cc2ccccc2)C(c2ccccc2)(c2ccccc2)O1`: the melting point lay within 259 to 261 °C. Regarding `CCOC(=O)COc1ccc(NS(C)(=O)=O)c(C)c1`, the melting point fell in the range of 93 to 94 °C.

`CCCCCCCCCCCCC(=O)c1noc(CCCCCCCCCCCC)c1[N+](=O)[O-]` showed a melting point of 60 to 62 °C. `CC(C)OC(=O)N[C@H](C(=O)N[C@H](CN)C(C)C)C(C)C`: the melting point turned out to be 106 °C. `CCn1nc2c(N)nc3ccccc3c2c1CC1(F)CCN(C(=O)NC(C)C)CC1`: the melting point fell in the range of 205 to 207 °C. Regarding `C#CCC(CC#C)(C(=O)O)S(=O)(=O)c1ccc(OC)cc1`, the melting point was found to be 156 °C. Regarding `CCCCCCCCNCC(O)COc1ccc(SC)cc1` (configuration not stated), the melting point was 79.5 to 80.5 °C.

As for `O=C(O)CCc1cn(Cc2ccc(Cl)cc2Cl)c2ccccc12`, the melting point lay in the range of 134 to 136 °C. `Cc1c(-c2ccccc2)oc2c(C(=O)N(C)CCO)cccc2c1=O`: the melting point lay within 128 to 130 °C. Compound `O=C(O)CNC(=O)c1ccc(C(=O)NS(=O)(=O)c2ccccc2)cn1` registered a melting point of 190 to 191 °C.

In turn, `CCCCCCCCCCCCCN1CC(=O)C(C#N)=C1N` showed a melting point of 214 to 215 °C. The result for `CCN(CC)c1ccc(CN2CCC(NC(=O)Nc3ccccc3CCc3cc(C(C)(C)C)c(O)c(C(C)(C)C)c3)CC2)cc1` reads 138 to 141 °C; that for `O=C(O)c1cc(OCC(F)(F)F)ccc1OCC(F)(F)F`, 99 to 101 °C; that for `O=S1(=O)N2CN3CN1CP(C3)C2`, 274 to 275 °C. Take `CSc1c(C(=O)NN=Cc2ccc(Cl)cc2)[nH]c2ccccc12`: the melting point lay within 232 to 235 °C. As to `Cc1[nH]c(=O)c(C#N)cc1-c1ccc2ncc(Cl)n2c1`, the melting point was over 300 °C. Regarding `c1ccc(-c2ccc3[nH]c4c(c3c2)CCNCC4)cc1`, the melting point was over 250 °C. In the case of `OC(CCN1CCC(c2ccc(Cl)cc2)CC1)c1ccc(Cl)cc1` (configuration not stated) it was 152 to 154 °C; in that of `CCCCN1C(=O)N(C2CCN(CC3CCCCC3)CC2)C(c2ccccc2)c2ccccc21` (configuration not stated), 115 to 117 °C; in that of `C[C@H]([C@](O)(Cn1cncn1)c1ccc(F)cc1F)S(=O)(=O)N1CCN(Cc2nncn2C)CC1`, 210 to 211 °C. `CC(C)CCN1C(=O)C2(COc3cc(O)c(C(=O)C(F)(F)F)cc32)c2ccccc21` (configuration not stated) returned a melting point of 87 to 88 °C. The compound `Cc1ccc(Oc2c(Cl)c(Oc3ccc(C)cc3)c(Oc3ccc(C)cc3)c(C#N)c2C#N)cc1` showed a melting point of 142 to 145 °C. `CC(=O)C(=Cc1ccc2c(c1)OCO2)C(=O)OCc1ccccc1`: the melting point lay within 137 to 138 °C. On to `O=C(O)CCn1nc(-c2c(-c3ccccc3)nn3ccccc23)cc1O`, for which the melting point is 211 to 213 °C. With `COC(=O)c1cc(SC(F)(F)F)c(-c2ccc(Cl)cc2)[nH]1`, the melting point is 133 to 137 °C. The result for `COc1ccc(/C=C/C(=O)C#CCO)cc1` reads 68 to 69 °C.

As to `CCCCNC(=O)NS(=O)(=O)Cc1c(C(=O)OC)cccc1[N+](=O)[O-]`, the melting point lay within 144 to 150 °C. Compound `NC1=Nc2ccc(Br)cc2C2CCCC12F` (configuration not stated) came in with a melting point of 220 °C.

Turning to `CS(=O)(=O)NCCn1c(CO)nc2c(N)nc3cccnc3c21`, the melting point was 239 to 242 °C. `CC(C)(C)c1cc(C2NNC(=S)N2N)cc(C(C)(C)C)c1O` (configuration not stated) displayed a melting point of 260 to 270 °C. In turn, `Oc1ccc(-c2cn(-c3ccc(C(F)(F)F)cc3F)nn2)cc1` displayed a melting point of 215 to 216 °C. The compound `CS(=O)(=O)c1ccc(-c2cc(C(F)F)nn2-c2cccc(C(F)(F)F)c2)cc1F` returned a melting point of 110 to 111 °C. In the case of `Cc1cccc(NC(=O)NC(C)C(=O)N(c2ccccc2)c2ccccc2)c1` (racemic) it was 82 °C; in that of `CCOC(=O)c1ccc(O)c(CC)c1`, 73 to 74 °C. `CC(=S)NC[C@H]1CN(c2ccc3c(c2)OC[C@@H](C)N3)C(=O)O1` registered a melting point of 74 to 77 °C. Turning to `COc1ccc(C(F)(F)F)cc1Nc1ccc(C(F)(F)F)cc1[N+](=O)[O-]`, the melting point was in the range of 86 to 88 °C. In turn, `CCOC(=O)/C=C/C1N(C(C)C)C(=O)c2ccccc2C1(O)c1ccc(F)cc1OC` (configuration not stated) returned a melting point of 178 to 179 °C. In turn, `COc1ccc(F)cc1C(C)(C)CC(O)(Cn1cnc(=O)c2ccccc21)C(F)(F)F` (configuration not stated) registered a melting point of 118 to 121 °C. `CCOC(=O)C1=C(N)NC2=C(C(=O)CCC2)C1c1ccccc1N=[N+]=[N-]` (configuration not stated) came in with a melting point of 209 °C. `C#CCOc1cc(C(=O)O)n(-c2ncc(Cl)cc2Cl)n1`: the melting point was in the range of 151 to 157 °C. In the case of `O=C1c2ccccc2C(=O)N1CC1CC1c1cccc2nscc12` (configuration not stated) it was 148 to 151 °C.
